Test system: Erysiphe [syn. Blumeria] graminis forma specialis. tritici
Experiment: Activity against mildew of wheat (protective spray test on potted wheat seedlings)
Format: in vivo
Conditions: wheat seedlings cv. Kanzler, rated after 7 days
Protocol: The active compounds, separately or together, were formulated as a 10% emulsion in a mixture of 63% by weight of cyclohexanone and 27% by weight of emulsifier, and diluted with water to the desired concentration.
Evaluation was carried out by determining the infected leaf areas in percent. These percentages were converted into efficacies. The efficacy (w) was calculated as follows using Abbot's formula: [formula] • α corresponds to the fungal infection of the treated plants in % and • β corresponds to the fungal infection of the untreated (control) plants in %
An efficacy of 0 means that the infection level of the treated plants corresponds to that of the untreated control plants; an efficacy of 100 means that the treated plants were not infected.
The expected efficacies of the mixtures of the active compounds were determined using Colby's formula [R. S. Colby, Weeds 15, 20-22 (1967)] and compared with the observed efficacies. E =x+y−x·y/100 Colby's formula: • E expected efficacy, expressed in % of the untreated control, when using the mixture of the active compounds A and B at the concentrations a and b • x efficacy, expressed in % of the untreated control, when using active compound A at a concentration of a • y efficacy, expressed in % of the untreated control, when using active compound B at a concentration of b
Activity Against Mildew of Wheat Caused by Erysiphe [syn. Blumeria] graminis forma Specialis. tritici
Leaves of wheat seedlings of the cultivar “Kanzler” grown in pots were sprayed to runoff point with an aqueous preparation of active compound which had been prepared from a stock solution comprising 10% of active compound, 85% of cyclohexanone and 5% of emulsifier. 24 hours after the spray coating had dried on, the plants were dusted with spores of mildew of wheat (Erysiphe [syn. Blumeria] graminis forma specialis. tritici). The test plants were then placed in a greenhouse at 20-24° C. and 60-90% relative atmospheric humidity. After 7 days, the extent of the mildew development was determined visually in % infection of the entire leaf area.
The visually determined values for the percentage of infected leaf areas were converted into efficacies in % of the untreated control. An efficacy of 0 means the same degree of infection as in the untreated control, an efficacy of 100 means 0% infection. The expected efficacies for combinations of active compounds were determined using Colby's formula (Colby, S. R. (Calculating synergistic and antagonistic responses of herbicide Combinations”, Weeds, 15, p. 20-22, 1967) and compared to the observed effacacies.

[1] = 1 ppm in the spray liquor, inoculated 24 h after spraying

Measured: Efficacy in % of the untreated control

CO/N=C(/C(=O)OC)c1ccccc1COc1ccccc1C [kresoxim-methyl]
0%: 0.06 ppm in the spray liquor | 0.25 ppm in the spray liquor | [1]

COC(=O)N(OC)c1ccccc1COc1ccn(-c2ccc(Cl)cc2)n1 [pyraclostrobin]
0%: 0.06 ppm in the spray liquor | 0.25 ppm in the spray liquor | [1]

CO/C=C(/C(=O)OC)c1ccccc1Oc1cc(Oc2ccccc2C#N)ncn1 [azoxystrobin]
0%: 0.015 ppm in the spray liquor | 0.25 ppm in the spray liquor | [1]

Source: US20050182051A1, “Fungicidal mixtures based on benzamidoxime derivative and a strobilurin derivative” (priority 2002, published 2005)
